# Measurements from EP3800188A1, “SUBSTITUTED PYRAZOLOPYRIMIDINES AS IRAK4 INHIBITORS” (Bayer AG, priority 2019, dated 2021).
# Target: T1, human IRAK4 (Homo sapiens, UniProt Q9NWZ3)
# T1 construct: GST (N); made in house; host or cells: baculovirus-infected Hi5 (BTI-TN-5B1-4) insect cells
# T1 sequence (Q9NWZ3 1-460): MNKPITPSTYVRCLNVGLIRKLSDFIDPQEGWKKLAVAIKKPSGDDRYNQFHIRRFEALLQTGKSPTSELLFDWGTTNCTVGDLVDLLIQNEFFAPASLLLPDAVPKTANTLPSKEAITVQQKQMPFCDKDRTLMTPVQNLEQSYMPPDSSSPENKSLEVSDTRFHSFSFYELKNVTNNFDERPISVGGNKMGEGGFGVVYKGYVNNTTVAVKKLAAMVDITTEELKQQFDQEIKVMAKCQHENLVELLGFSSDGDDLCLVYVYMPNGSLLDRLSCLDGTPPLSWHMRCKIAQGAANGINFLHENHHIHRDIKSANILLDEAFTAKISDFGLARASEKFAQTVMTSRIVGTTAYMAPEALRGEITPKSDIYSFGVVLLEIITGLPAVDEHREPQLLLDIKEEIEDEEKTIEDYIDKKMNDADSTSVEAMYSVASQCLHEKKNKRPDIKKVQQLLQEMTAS
# Experiment: Human IRAK4 kinase activity inhibition assay (IRAK4 TR-FRET assay)
# Type: biochemical
# Conditions: 1 mM ATP, GST-human IRAK4, average or median values
# Summary of the method: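 Signal was the 665/620 nm emission ratio from a europium anti-mouse-IgG, anti-phosphoserine antibody and streptavidin-XL665 complex formed over 1 h at 22°C. It was scaled between no-enzyme (100%) and no-compound (0%) wells. Beforehand, compounds (20 µM down to 0.073 nM, 11 points) sat 15 min with roughly 0.2 nM insect-cell-expressed GST-human IRAK4 before phosphorylation of a biotinylated peptide substrate.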
row,Structure (SMILES),IC50
1,"CCS(=O)(=O)[C@H]1C[C@H](Nc2nc(N3CC(N4CCOCC4)C3)c3cnn(-c4cccc(C(F)(F)F)c4)c3n2)C1 [Example I-82, N-[trans-3-(ethylsulfonyl)cyclobutyl]-4-[3-(morpholin-4-yl)azetidin-1-yl]-1-[3-(trifluoromethyl)phenyl]-1H-pyrazolo[3,4-d]pyrimidin-6-amine]",11.5 nM
2,"CCS(=O)(=O)N1CC(Nc2nc(N3C[C@@H](O)[C@H](O)C3)c3cnn(-c4cccc(C(F)(F)F)c4)c3n2)C1 [Example I-84, (3R,4R)-1-(6-{[1-(ethylsulfonyl)azetidin-3-yl]amino}-1-[3-(trifluoromethyl)phenyl]-1H-pyrazolo[3,4-d]pyrimidin-4-yl)pyrrolidine-3,4-diol]",48.3 nM
3,"CCS(=O)(=O)[C@H]1C[C@H](Nc2nc(N3C[C@@H](O)[C@H](F)C3)c3cnn(-c4cccc(C(F)(F)F)c4)c3n2)C1 [Example I-87, (3R,4R)-1-(6-{[(1r,3R)-3-(ethylsulfonyl)cyclobutyl]amino}-1-[3-(trifluoromethyl)phenyl]-1H-pyrazolo[3,4-d]pyrimidin-4-yl)-4-fluoropyrrolidin-3-ol]",7.87 nM
4,"CC(C)(O)C1CCN(c2nc(N[C@H]3C[C@@](C)(O)C3)nc3c2cnn3-c2cccc(C(F)(F)F)c2)CC1 [Example I-90, cis-3-({4-[4-(2-hydroxypropan-2-yl)piperidin-1-yl]-1-[3-(trifluoromethyl)phenyl]-1H-pyrazolo[3,4-d]pyrimidin-6-yl}amino)-1-methylcyclobutanol]",24.7 nM
5,"CS(=O)(=O)[C@H]1C[C@H](Nc2nc(N3CCC(O)CC3)c3cnn(-c4cccc(C(F)(F)F)c4)c3n2)C1 [Example I-93, 1-(6-{[trans-3-(methylsulfonyl)cyclobutyl]amino}-1-[3-(trifluoromethyl)phenyl]-1H-pyrazolo[3,4-d]pyrimidin-4-yl)piperidin-4-ol]",11.2 nM
6,"CCS(=O)(=O)[C@H]1C[C@H](Nc2nc(N3C[C@H](O)[C@@H](F)C3)c3cnn(-c4cccc(C(F)(F)F)c4)c3n2)C1 [Example I-95, (3S,4S)-1-(6-{[(1r,3S)-3-(ethylsulfonyl)cyclobutyl]amino}-1-[3-(trifluoromethyl)phenyl]-1H-pyrazolo[3,4-d]pyrimidin-4-yl)-4-fluoropyrrolidin-3-ol]",25 nM
7,"O[C@H]1CN(c2nc(N[C@H]3C[C@H](O)C3)nc3c2cnn3-c2cccc(C(F)(F)F)c2)C[C@@H]1F [Example I-96, (3S,4S)-4-fluoro-1-(6-{[(1r,3S)-3-hydroxycyclobutyl]amino}-1-[3-(trifluoromethyl)-phenyl]-1H-pyrazolo[3,4-d]pyrimidin-4-yl)pyrrolidin-3-ol]",8.1 nM
8,"O[C@H]1CN(c2nc(N[C@H]3C[C@@H](O)C3)nc3c2cnn3-c2cccc(C(F)(F)F)c2)C[C@@H]1F [Example I-97, (3S,4S)-4-fluoro-1-(6-{[(1s,3R)-3-hydroxycyclobutyl]amino}-1-[3-(trifluoromethyl)-phenyl]-1H-pyrazolo[3,4-d]pyrimidin-4-yl)pyrrolidin-3-ol]",8.16 nM
9,"CS(=O)(=O)[C@H]1C[C@H](Nc2nc(N3CC(F)C3)c3cnn(-c4cccc(C(F)(F)F)c4)c3n2)C1 [Example I-99, 4-(3-fluoroazetidin-1-yl)-N-[trans-3-(methylsulfonyl)cyclobutyl]-1-[3-(trifluoromethyl)-phenyl]-1H-pyrazolo[3,4-d]pyrimidin-6-amine]",16.2 nM
10,OC1CCN(c2nc(N[C@H]3C[C@H](O)C3)nc3c2cnn3-c2cccc(C(F)(F)F)c2)CC1 [Example I-100],49.9 nM
11,"C[C@@]1(O)CCN(c2nc(N[C@H]3C[C@H](O)C3)nc3c2cnn3-c2cccc(C(F)(F)F)c2)C1 [Example I-102, (3R)-1-(6-{[(1r,3R)-3-hydroxycyclobutyl]amino}-1-[3-(trifluoromethyl)phenyl]-1H-pyrazolo[3,4-d]pyrimidin-4-yl)-3-methylpyrrolidin-3-ol]",49.9 nM
12,"C[C@@]1(O)CCN(c2nc(N[C@H]3C[C@H](S(C)(=O)=O)C3)nc3c2cnn3-c2cccc(C(F)(F)F)c2)C1 [Example I-103, (3R)-3-methyl-1-(6-{[(1r,3R)-3-(methylsulfonyl)cyclobutyl]amino}-1-[3-(trifluoromethyl)-phenyl]-1H-pyrazolo[3,4-d]pyrimidin-4-yl)pyrrolidin-3-ol]",11.4 nM
13,"CC1(O)CCN(C2CN(c3nc(N[C@H]4C[C@](C)(O)C4)nc4c3cnn4-c3cccc(C(F)(F)F)c3)C2)CC1 [Example I-110, 1-(1-{6-[(trans-3-hydroxy-3-methylcyclobutyl)amino]-1-[3-(trifluoromethyl)phenyl]-1H-pyrazolo[3,4-d]pyrimidin-4-yl}azetidin-3-yl)-4-methylpiperidin-4-ol]",11.8 nM
14,"CC(C)(O)C1CN(c2nc(N[C@H]3C[C@@H](O)C3)nc3c2cnn3-c2cccc(C(F)(F)F)c2)C1 [Example I-116, cis-3-({4-[3-(2-hydroxypropan-2-yl)azetidin-1-yl]-1-[3-(trifluoromethyl)phenyl]-1H-pyrazolo[3,4-d]pyrimidin-6-yl}amino)cyclobutanol]",16.8 nM
15,"O[C@@H]1CCN(c2nc(N[C@H]3C[C@@H](O)C3)nc3c2cnn3-c2cccc(C(F)(F)F)c2)C1 [Example I-117, (3R)-1-(6-{[(1s,3S)-3-hydroxycyclobutyl]amino}-1-[3-(trifluoromethyl)phenyl]-1H-pyrazolo[3,4-d]pyrimidin-4-yl)pyrrolidin-3-ol]",23.4 nM
16,"O[C@H]1C[C@@H](Nc2nc(N3CC(N4CCC(F)(F)C4)C3)c3cnn(-c4cccc(C(F)(F)F)c4)c3n2)C1 [Example I-118, cis-3-({4-[3-(3,3-difluoropyrrolidin-1-yl)azetidin-1-yl]-1-[3-(trifluoromethyl)phenyl]-1H-pyrazolo[3,4-d]pyrimidin-6-yl}amino)cyclobutanol]",5.13 nM
17,"O[C@H]1C[C@H](Nc2nc(N3CC(N4CC(F)C4)C3)c3cnn(-c4cccc(C(F)(F)F)c4)c3n2)C1 [Example I-119, trans-3-({4-(3-fluoro[1,3'-biazetidin]-1'-yl)-1-[3-(trifluoromethyl)phenyl]-1H-pyrazolo[3,4-d]pyrimidin-6-yl}amino)cyclobutanol]",16.5 nM
18,"C[C@]1(O)C[C@H](Nc2nc(N3CC(N4CC(F)C4)C3)c3cnn(-c4cccc(C(F)(F)F)c4)c3n2)C1 [Example I-120, trans-3-({4-(3-fluoro[1,3'-biazetidin]-1'-yl)-1-[3-(trifluoromethyl)phenyl]-1H-pyrazolo[3,4-d]pyrimidin-6-yl}amino)-1-methylcyclobutanol]",16.6 nM
19,"O=C1COCCN1C1CN(c2nc(N[C@H]3C[C@@H](O)C3)nc3c2cnn3-c2cccc(C(F)(F)F)c2)C1 [Example I-121, 4-(1-{6-[(cis-3-hydroxycyclobutyl)amino]-1-[3-(trifluoromethyl)phenyl]-1H-pyrazolo[3,4-d]pyrimidin-4-yl}azetidin-3-yl)morpholin-3-one]",3.65 nM
20,"C[C@]1(O)C[C@H](Nc2nc(N3CC(N4CCOCC4=O)C3)c3cnn(-c4cccc(C(F)(F)F)c4)c3n2)C1 [Example I-122, 4-(1-{6-[(trans-3-hydroxy-3-methylcyclobutyl)amino]-1-[3-(trifluoromethyl)phenyl]-1H-pyrazolo[3,4-d]pyrimidin-4-yl}azetidin-3-yl)morpholin-3-one]",2.75 nM
21,"CC1(N2CCOCC2)CN(c2nc(N[C@H]3C[C@](C)(O)C3)nc3c2cnn3-c2cccc(C(F)(F)F)c2)C1 [Example I-123, trans-1-methyl-3-({4-[3-methyl-3-(morpholin-4-yl)azetidin-1-yl]-1-[3-(trifluoromethyl)-phenyl]-1H-pyrazolo[3,4-d]pyrimidin-6-yl}amino)cyclobutanol]",7.98 nM
22,"C[C@]1(O)CCN(c2nc(N[C@H]3C[C@@H](O)C3)nc3c2cnn3-c2cccc(C(F)(F)F)c2)C1 [Example I-124, (3S)-1-(6-{[(1s,3R)-3-hydroxycyclobutyl]amino}-1-[3-(trifluoromethyl)phenyl]-1H-pyrazolo[3,4-d]pyrimidin-4-yl)-3-methylpyrrolidin-3-ol]",22.5 nM
23,"CCC1(O)CN(c2nc(N[C@H]3CCN(C)C3)nc3c2cnn3-c2cccc(S(C)(=O)=O)c2)C1 [Example V-1, 3-ethyl-1-(6-{[(3S)-1-methylpyrrolidin-3-yl]amino}-1-[3-(methylsulfonyl)phenyl]-1H-pyrazolo[3,4-d]pyrimidin-4-yl)azetidin-3-ol]",170 nM
24,"CCC1(O)CN(c2nc(N[C@@H]3CCOC3)nc3c2cnn3-c2cccc(S(C)(=O)=O)c2)C1 [Example V-2, 3-ethyl-1-{1-[3-(methylsulfonyl)phenyl]-6-[(3R)-tetrahydrofuran-3-ylamino]-1H-pyrazolo[3,4-d]pyrimidin-4-yl}azetidin-3-ol]",179 nM
25,"O=S1(=O)CC[C@H](Nc2nc(N3CC(N4CCOCC4)C3)c3cnn(-c4cccc(C(F)F)c4)c3n2)C1 [II-3, 1-[3-(difluoromethyl)phenyl]-N-[(3S)-1,1-dioxidotetrahydrothiophen-3-yl]-4-[3-(morpholin-4-yl)azetidin-1-yl]-1H-pyrazolo[3,4-d]pyrimidin-6-amine]",24.8 nM
